Biological target: T1, human recombinant mGluR5 (Homo sapiens, UniProt P41594)
T1 construct: expressed in transfected cells; host or cells: HEK 293 cell line cultured with tetracycline, hygromycin and geneticin; tetracycline removed 3-7 days before the assay
Assay: positive modulation of mGluR5, calcium based FLIPR assay in HEK 293 cells
Settings: HEK 293 cell line expressing human recombinant mGluR5; EC50 of the modulation of the glutamate response (glutamate approx. 5% basal stimulation); peak height of Ca release fluorescence signal
Method in brief: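 HEK 293 cells expressing human mGluR5 (tetracycline-free medium 3-7 days before), loaded with Calcium-4 dye, in Ringer buffer pH 7.4, 1% DMSO. Compound pre-incubated 5 min, then glutamate at about 5% of maximal effect added; EC50 from peak Ca2+ fluorescence by nonlinear regression, scaled between DMSO (100%) and 10 μM CDPPB (200%) controls.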

T1 sequence (P41594 21-1212): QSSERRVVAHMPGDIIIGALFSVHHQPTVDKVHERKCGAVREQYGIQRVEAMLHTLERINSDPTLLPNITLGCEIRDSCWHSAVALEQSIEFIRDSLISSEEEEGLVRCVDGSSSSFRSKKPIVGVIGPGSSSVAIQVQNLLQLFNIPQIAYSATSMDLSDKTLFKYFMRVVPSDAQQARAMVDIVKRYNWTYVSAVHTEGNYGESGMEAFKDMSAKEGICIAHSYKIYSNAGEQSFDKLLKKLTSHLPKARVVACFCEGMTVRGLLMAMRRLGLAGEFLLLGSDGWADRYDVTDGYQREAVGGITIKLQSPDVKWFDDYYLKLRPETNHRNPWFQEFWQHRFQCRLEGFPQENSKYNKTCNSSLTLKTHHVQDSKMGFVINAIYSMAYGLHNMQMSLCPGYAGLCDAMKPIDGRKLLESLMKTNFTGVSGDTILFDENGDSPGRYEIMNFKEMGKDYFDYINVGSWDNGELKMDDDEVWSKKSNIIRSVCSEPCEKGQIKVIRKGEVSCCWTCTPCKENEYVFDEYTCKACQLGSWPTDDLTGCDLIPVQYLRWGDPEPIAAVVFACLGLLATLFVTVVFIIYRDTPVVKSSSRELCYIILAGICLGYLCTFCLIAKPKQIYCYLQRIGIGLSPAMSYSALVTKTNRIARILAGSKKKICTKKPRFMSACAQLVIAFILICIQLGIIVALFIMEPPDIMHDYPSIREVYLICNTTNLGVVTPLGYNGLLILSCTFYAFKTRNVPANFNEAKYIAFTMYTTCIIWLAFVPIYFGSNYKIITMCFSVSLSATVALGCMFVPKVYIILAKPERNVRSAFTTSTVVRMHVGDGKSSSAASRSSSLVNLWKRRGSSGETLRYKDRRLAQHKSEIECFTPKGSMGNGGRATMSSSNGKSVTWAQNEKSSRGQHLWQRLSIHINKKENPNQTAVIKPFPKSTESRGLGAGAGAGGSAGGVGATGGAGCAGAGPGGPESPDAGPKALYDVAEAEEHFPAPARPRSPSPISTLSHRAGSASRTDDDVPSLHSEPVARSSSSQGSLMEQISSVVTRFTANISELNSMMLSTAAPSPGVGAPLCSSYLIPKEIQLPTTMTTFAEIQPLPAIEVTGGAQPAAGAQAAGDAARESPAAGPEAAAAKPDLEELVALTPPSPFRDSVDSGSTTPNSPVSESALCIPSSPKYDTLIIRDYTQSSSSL

Structure (SMILES) | EC50 [µM]
COc1cccc(N2CCN(C(=O)Cn3nc(-c4ccc(F)cc4)nc3-c3ccc(F)cc3)CC2)c1 [Example 07.04.014.] | 0.467
O=C1CCCN1CCOc1cc(N2CCN(C(=O)Cn3nc(-c4ccc(F)cc4)nc3-c3ccc(F)cc3)CC2)ncn1 [Example 07.09.12.] | 0.17
CCOc1ccnc(N2CCN(C(=O)Cn3nc(-c4ccc(OC)cc4)nc3-c3ccccc3)CC2)c1 [Example 07.04.055.] | 0.101
O=C(Cn1nc(-c2ccc(F)cc2)nc1-c1ccc(F)cc1)N1CCN(c2cc(NC3CCOCC3)ncn2)CC1 [Example 07.08.05.] | 0.51
COc1cc(N2CCN(C(=O)Cn3nc(-c4ccc(F)c(OC)c4)nc3-c3ccc(F)cc3)CC2)ncn1 [Example 07.04.158.] | 0.027
COc1ccc(-c2nc(-c3ccc(OC)cc3)n(CC(=O)N3CCN(c4ccc(Cl)cn4)CC3)n2)cc1 [Example 07.02.12.] | 0.328
COc1ccc(-c2nc(C3CCCCC3)n(CC(=O)N3CCN(c4ccccn4)CC3)n2)c(F)c1 [Example 07.04.022.] | 1.04
Cc1ccc(-c2nc(-c3ccccc3)n(CC(=O)N3CCN(c4ncccn4)CC3)n2)cc1 [Example 07.10.12.] | 0.023
COc1cc(N2CCN(C(=O)Cn3nc(-c4ccc(F)cn4)nc3-c3ccc(F)cc3)CC2)ncn1 [Example 07.04.141.] | 0.932
O=C(Cn1nc(-c2ccc(F)cc2)nc1-c1ccc(F)cc1)N1CCN(c2cc(OCC3CCOCC3)ncn2)CC1 [Example 07.09.29.] | 0.044
O=C(Cn1nc(-c2ccc(F)cc2)nc1-c1ccc(F)cc1)N1CCN(c2cc(N3CCC(O)CC3)ncn2)CC1 [Example 07.08.02.] | 0.284
Cc1cc(-c2nc(C)n(CC(=O)N3CCN(c4ccccn4)CC3)n2)ccc1F [Example 07.04.095.] | 1.66
Cc1cc(-c2nc(CC(C)C)n(CC(=O)N3CCN(c4ncccn4)CC3)n2)ccc1F [Example 07.04.108.] | 0.317
COc1ccnc(N2CCN(C(=O)Cn3nc(-c4ccc(F)c(C)c4)nc3CCC(C)C)CC2)c1 [Example 07.04.120.] | 0.153
O=C(Cn1nc(-c2ccc(F)cc2)nc1-c1ccc(F)cc1)N1CCN(c2cc(OCC3CCOC3)ncn2)CC1 (stereo not drawn) [Example 07.09.05.] | 0.041
CCc1ccnc(N2CCN(C(=O)Cn3nc(-c4ccc(F)cc4)nc3-c3ccc(F)cc3)CC2)c1 [Example 07.05.02.] | 0.043
O=C(Cn1nc(-c2ccc(F)cc2)nc1-c1ccc(F)cc1)N1CCN(c2nccc3ccccc23)CC1 [Example 07.04.006.] | 0.899
CC(C)Nc1cc(N2CCN(C(=O)Cn3nc(-c4ccc(F)cc4)nc3-c3ccc(F)cc3)CC2)ncn1 [Example 07.08.07.] | 0.151
Cc1ccnc(N2CCN(C(=O)Cn3nc(-c4ccc(F)cc4)nc3C3CCCCC3)CC2)c1 [Example 07.04.030.] | 1.42
O=C(Cn1nc(-c2ccccc2)nc1-c1ccc(CN2CCOCC2)cc1)N1CCN(c2ncccn2)CC1 [Example 07.10.28.] | 0.804
COc1cc(N2CCN(C(=O)Cn3nc(-c4ccc(F)cc4)nc3-c3ccc(F)cc3)CC2)ncn1 [Example 07.04.016.] | 0.062
Cc1cccnc1N1CCN(C(=O)Cn2nc(-c3ccc(F)cc3)nc2-c2ccc(F)cc2)CC1 [Example 07.02.04.] | 1.06
Cc1cc(C)cc(-c2nc(-c3ccccc3)n(CC(=O)N3CCN(c4ncccn4)CC3)n2)c1 [Example 07.10.16.] | 0.031
Cc1ccnc(N2CCN(C(=O)Cn3nc(-c4ccc(F)cc4)nc3-c3ccc(F)cc3)CC2)c1 [Example 07.02.05.] | 0.044
COc1cccc(-c2nc(-c3ccc(F)cc3)nn2CC(=O)N2CCN(c3ncccn3)CC2)c1 [Example 07.04.026.] | 0.236
O=C(Cn1nc(-c2cccc(F)c2)nc1-c1cccc(F)c1)N1CCN(c2ncccn2)CC1 [Example 07.04.023.] | 0.37
COc1cc(N2CCN(C(=O)Cn3nc(-c4ccc(F)c(C(F)(F)F)c4)nc3-c3ccccc3)CC2)ncn1 [Example 07.10.31.] | 0.27

Structure (SMILES) | EC50 [µM]
O=C(Cn1nc(-c2ccc(F)cc2)nc1-c1ccc(F)cc1)N1CCN(c2cc(OCCO)ncn2)CC1 [Example 07.07.01., 2-(3,5-bis-(4-fluoro-phenyl)-(1,2,4)triazol-1-yl)-1-(4-(6-(2-hydroxy-ethoxy)-pyrimidin-4-yl)-piperazin-1-yl)-ethanone] | 0.165
O=C(Cn1nc(-c2cccc(F)c2)nc1-c1ccccc1)N1CCN(c2ncccn2)CC1 [Example 07.10.07.] | 0.189
COc1cc(N2CCN(C(=O)Cn3nc(-c4ccc(F)c(C)c4)nc3-c3ccccc3)CC2)ncn1 [Example 07.04.060.] | 0.055
COc1ccnc(N2CCN(C(=O)Cn3nc(-c4ccc(F)cc4)nc3-c3ccc(F)cc3)CC2)n1 [Example 07.03.10.] | 0.067
CCC(C)c1nc(-c2ccc(F)c(C)c2)nn1CC(=O)N1CCN(c2cc(C)ccn2)CC1 (stereo not drawn) [Example 07.04.099.] | 0.499
COc1ccc(-c2nc(-c3ccc(F)cc3)n(CC(=O)N3CCN(c4ncc(Cl)cn4)CC3)n2)cc1 [Example 07.04.038.] | 0.023
COc1ccc(-c2nc(-c3ccc(F)cc3)n(CC(=O)N3CCN(c4ncc(Br)cn4)CC3)n2)cc1 [Example 07.04.036.] | 0.032
COc1cc(N2CCN(C(=O)Cn3nc(-c4ccc(F)c(C)c4)nc3CC(C)C)CC2)ncn1 [Example 07.04.109.] | 0.824
CC(C)Oc1cc(N2CCN(C(=O)Cn3nc(-c4ccc(F)cc4)nc3-c3ccc(F)cc3)CC2)ncn1 [Example 07.06.04.] | 0.153
C=C(C)c1nc(-c2ccccc2)nn1CC(=O)N1CCN(c2ncccn2)CC1 [Example 07.10.27.] | 1.47
CCCCCc1nc(-c2ccc(F)c(C)c2)nn1CC(=O)N1CCN(c2ncccn2)CC1 [Example 07.04.127.] | 0.064
Cc1cc(-c2nc(-c3ccccc3)n(CC(=O)N3CCN(c4ccccn4)CC3)n2)ccc1F [Example 07.04.061.] | 0.067
CN(CCO)c1cc(N2CCN(C(=O)Cn3nc(-c4ccc(F)cc4)nc3-c3ccc(F)cc3)CC2)ncn1 [Example 07.08.09.] | 0.332
Cc1ccnc(N2CCN(C(=O)Cn3nc(-c4ccc(F)c(C)c4)nc3-c3ccccc3)CC2)c1 [Example 07.04.062.] | 0.057
O=C(Cn1nc(-c2ccc(F)cc2)nc1-c1ccc(F)cc1)N1CCN(c2ccccn2)CC1 [Example 07.01.02.] | 0.056
CCCc1nc(-c2ccc(F)c(C)c2)nn1CC(=O)N1CCN(c2ncncn2)CC1 [Example 07.04.084.] | 1.6
COc1cc(N2CCN(C(=O)Cn3nc(-c4ccc(F)c(C)c4)nc3C3CCCC3)CC2)ncn1 [Example 07.04.112.] | 0.311
COc1ccc(-c2nc(-c3ccc(F)cc3)nn2CC(=O)N2CCN(c3cc(C)ccn3)CC2)cc1 [Example 07.04.041.] | 0.113
O=C(Cn1nc(-c2ccc(F)cc2)nc1-c1ccc(F)cc1)N1CCN(c2cc(NC3CCC3)ncn2)CC1 [Example 07.08.20.] | 0.155
COc1cc(-c2nc(-c3ccc(F)cc3)n(CC(=O)N3CCN(c4ncccn4)CC3)n2)ccc1F [Example 07.04.156.] | 0.018
COc1cnnc(N2CCN(C(=O)Cn3nc(-c4ccc(F)cc4)nc3-c3ccc(F)cc3)CC2)c1 [Example 07.04.017.] | 0.421
Cc1ccnc(N2CCN(C(=O)Cn3nc(-c4ccc(F)cc4)nc3CCc3ccccc3)CC2)c1 [Example 07.04.151.] | 0.56
CCCCc1nc(-c2ccc(F)c(C)c2)nn1CC(=O)N1CCN(c2ncccn2)CC1 [Example 07.04.117.] | 0.39
CN1CCC(Nc2cc(N3CCN(C(=O)Cn4nc(-c5ccc(F)cc5)nc4-c4ccc(F)cc4)CC3)ncn2)CC1 [Example 07.08.16.] | 1.16
CCc1nc(-c2ccc(F)c(C)c2)nn1CC(=O)N1CCN(c2ccccn2)CC1 [Example 07.04.091.] | 1.09
COc1cc(N2CCN(C(=O)Cn3nc(-c4ccc(C5CC5)cc4)nc3-c3ccccc3)CC2)ncn1 [Example 07.10.29.] | 0.219
COc1ccc(-c2nc(-c3ccc(F)cc3)nn2CC(=O)N2CCN(c3ncc(Br)cn3)CC2)cc1 [Example 07.04.044.] | 0.088
